The text below walks through data of PubChem BioAssay (NCI).

Some test systems named below: SK-MEL-28 melanoma; OVCAR-4 ovarian; UACC-62 melanoma; MCF7 breast; SF-268 CNS; TK-10 renal; HCT-15 colon; NCI-H226 lung; HCT-116 colon; HS 578T breast.
Experiment in all cases: inhibition of tumour cell growth, NCI panel, 48 h

Each structure is given as a SMILES string.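 Test compounds were applied to cells in 96-well plates for 48 hours at 5 doses. TGI marks complete inhibition of growth.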

Take `COc1ccc(CSc2ccccc2Cn2cccc2)cc1OC`: the TGI in the test with SK-MEL-28 melanoma, in the test with OVCAR-4 ovarian, in the test with UACC-62 melanoma, in the test with MCF7 breast, with SF-268 CNS and in the test with TK-10 renal was over 100 µM in each case. Moreover, the TGI with HCT-15 colon, in the test with NCI-H226 lung and with HCT-116 colon was over 100 µM throughout.
`COc1ccc(/C=C2\CN(C)C/C(=C\c3ccc(OC)c(OC)c3OC)C2=O)c(OC)c1OC`: the TGI was over 100 µM with HS 578T breast; 0.393 µM in the test on SK-MEL-28 melanoma; 1.13 µM in the test with OVCAR-4 ovarian; 0.548 µM in the test with UACC-62 melanoma; 2.01 µM with SF-268 CNS; 2.33 µM in the test on TK-10 renal. Further, the TGI stood at 2.49 µM with NCI-H226 lung and 0.196 µM in the test on HCT-116 colon.
Turning to `CN(CCCNC(=O)c1nn(-c2ccc(Cl)cc2Cl)c2c1Cc1ccccc1-2)CCCNC(=O)c1nn(-c2ccc(Cl)cc2Cl)c2c1Cc1ccccc1-2`, the TGI with SK-MEL-28 melanoma was found to be 3.3 µM; in the test on OVCAR-4 ovarian, 2.58 µM; in the test on UACC-62 melanoma, 2.92 µM; in the test with TK-10 renal it was 3.14 µM; with HCT-15 colon it was 3.38 µM; in the test on HCT-116 colon, 3.15 µM.
As to `O=C(Cc1ccccc1)NN1C(=O)C(Cl)C1c1ccccc1O` (centres undefined), the TGI with SK-MEL-28 melanoma, in the test with OVCAR-4 ovarian, in the test with UACC-62 melanoma, with SF-268 CNS, in the test with TK-10 renal and in the test on HCT-15 colon was over 100 µM in each case. For the same compound, the TGI is 52.5 µM in the test with NCI-H226 lung and over 100 µM in the test with HCT-116 colon.
`COc1cc(/C=C(/C#N)C(N)=O)ccc1O`: the TGI with SK-MEL-28 melanoma, in the test on OVCAR-4 ovarian, in the test on UACC-62 melanoma, in the test on MCF7 breast, in the test on SF-268 CNS and in the test on HCT-15 colon was over 100 µM in each case. Besides, the TGI in the test on NCI-H226 lung and with HCT-116 colon was over 100 µM each time.
In the case of `Cc1ccc(CC(C)N)cc1` (centres undefined), the TGI in the test on SK-MEL-28 melanoma, in the test on OVCAR-4 ovarian, with UACC-62 melanoma, with SF-268 CNS, in the test with TK-10 renal and in the test with HCT-15 colon was over 100 µM throughout. For the same compound, the TGI in the test on NCI-H226 lung and in the test with HCT-116 colon was over 100 µM each time.
As to `COc1cc2c(cc1OC)C1(c3ccc(Cl)cc3)ON=C(c3ccccc3)N1CS2` (centres undefined), the TGI with SK-MEL-28 melanoma, with OVCAR-4 ovarian, in the test on UACC-62 melanoma, in the test on SF-268 CNS, in the test with TK-10 renal and in the test with HCT-15 colon was over 100 µM throughout. Also, the TGI with NCI-H226 lung and in the test on HCT-116 colon was over 100 µM each time.
Take `O=C(CC(=O)Nc1ccccc1)N/N=C/c1cc(N=Nc2ccc(Br)cc2)ccc1O`: the TGI in the test on HS 578T breast, with SK-MEL-28 melanoma, in the test on OVCAR-4 ovarian, in the test with UACC-62 melanoma, in the test on MCF7 breast and with SF-268 CNS was over 10 µM each time. Further, the TGI in the test on TK-10 renal and with HCT-15 colon was over 10 µM each time.
As for `CC(NC(C)(C)C)C(=O)c1cccc(Cl)c1` (centres undefined), the TGI in the test on SK-MEL-28 melanoma, in the test with OVCAR-4 ovarian, in the test on UACC-62 melanoma, in the test with SF-268 CNS, in the test on TK-10 renal and in the test on HCT-116 colon was over 100 µM in each case.
On to `O=C(O)CNC(=O)c1c2ccccc2nc2ccccc12`, for which the TGI with SK-MEL-28 melanoma, with OVCAR-4 ovarian, with UACC-62 melanoma, in the test with MCF7 breast, in the test on SF-268 CNS and in the test on TK-10 renal was over 100 µM throughout. For the same compound, the TGI with HCT-15 colon, in the test on NCI-H226 lung and in the test on HCT-116 colon was over 100 µM throughout.
`CC(C)=C/C=C1/CS(=O)(=O)C=C1C`: the TGI in the test on SK-MEL-28 melanoma, in the test on UACC-62 melanoma, with MCF7 breast, in the test on TK-10 renal, in the test on HCT-15 colon and in the test with NCI-H226 lung was over 100 µM each time. In addition, the TGI in the test on HCT-116 colon was over 100 µM.
Turning to `CCOC(=O)CSc1nnc(C(Sc2nc(-c3ccccc3)c(-c3ccccc3)[nH]2)C(C)C)n1-c1ccccc1` (centres undefined), the TGI with SK-MEL-28 melanoma was 29 µM; with OVCAR-4 ovarian it was 28.5 µM; with UACC-62 melanoma, over 10 µM; in the test on MCF7 breast it was over 100 µM; in the test on SF-268 CNS, over 31.6 µM; in the test with TK-10 renal it was over 31.6 µM. Moreover, the values for the TGI with HCT-15 colon, with NCI-H226 lung and in the test on HCT-116 colon were over 31.6 µM, 26 µM and over 31.6 µM, respectively.
For the compound `CCCc1ccc(NCc2cc(OC)c(OC)c(OC)c2)cc1`, the TGI was 73.9 µM in the test with SK-MEL-28 melanoma; over 100 µM with OVCAR-4 ovarian; over 100 µM in the test with UACC-62 melanoma; 79.2 µM with SF-268 CNS; over 100 µM with TK-10 renal; 32.1 µM with HCT-15 colon. The TGI with HCT-116 colon was determined as 48.3 µM.
As for `COC(=O)c1cnn2c1n[n+]([O-])c1ccccc12`, the TGI in the test on HS 578T breast, in the test on SK-MEL-28 melanoma, in the test on UACC-62 melanoma, with MCF7 breast, in the test with SF-268 CNS and in the test on TK-10 renal was over 100 µM each time. Further, the TGI in the test with NCI-H226 lung and in the test on HCT-116 colon was over 100 µM in each case.
For the compound `COC(=O)c1c(O)ccc2c1C1(Cc3ccccc3C1=O)C(O)O2` (centres undefined), the TGI in the test on HS 578T breast is 61 µM; with SK-MEL-28 melanoma, over 100 µM; in the test with OVCAR-4 ovarian, 35.8 µM; in the test with MCF7 breast, over 100 µM; with SF-268 CNS, 51.6 µM; in the test on TK-10 renal, 52.6 µM. The values for the TGI with HCT-15 colon, with NCI-H226 lung and with HCT-116 colon were 54.2 µM, 35.5 µM and 32.6 µM, respectively.
With `Cc1ccc(N=Nc2c(O)c(C(=O)Nc3ccccc3)cc3ccccc23)c([N+](=O)[O-])c1`, the TGI with HS 578T breast, in the test on SK-MEL-28 melanoma, in the test on OVCAR-4 ovarian, with UACC-62 melanoma, in the test with SF-268 CNS and with TK-10 renal was over 100 µM each time. Further, the TGI with HCT-15 colon and with HCT-116 colon was over 100 µM each time.
As to `CC(=O)OCC1OC(n2c(=O)[nH]c(=O)c3sccc32)C(Br)C1OC(C)=O` (centres undefined), the TGI in the test with HS 578T breast, with SK-MEL-28 melanoma, in the test with OVCAR-4 ovarian, in the test with MCF7 breast, in the test with SF-268 CNS and in the test on TK-10 renal was over 100 µM throughout. For the same compound, the TGI with HCT-15 colon, in the test with NCI-H226 lung and in the test with HCT-116 colon was over 100 µM throughout.
Turning to `Cc1cc(NCCCCCCCNc2cc(C)nc3cc([N+](=O)[O-])ccc23)c2ccc([N+](=O)[O-])cc2n1`, the TGI with HS 578T breast was 5.53 µM; in the test on SK-MEL-28 melanoma it was 10.1 µM; with OVCAR-4 ovarian it was 4.31 µM; with UACC-62 melanoma, 53.2 µM; with SF-268 CNS, 7.5 µM; with TK-10 renal, 39 µM. In addition, the TGI in the test on HCT-15 colon was 9.8 µM; in the test on NCI-H226 lung, 37.4 µM; in the test on HCT-116 colon it was 3.56 µM.
On to `O=C(CSC1=NCCN1)Nc1ccccc1`, for which the TGI in the test on HS 578T breast was 65.9 µM; in the test on SK-MEL-28 melanoma, 62.6 µM; in the test on OVCAR-4 ovarian, over 100 µM; in the test with UACC-62 melanoma, 52.4 µM; with SF-268 CNS, 93.3 µM; in the test on TK-10 renal, 43.9 µM. The results for the TGI in the test on HCT-15 colon and in the test with HCT-116 colon were over 100 µM and 59.6 µM, respectively.
For the compound `O=C1NC(=S)N(c2ccccc2)C1=O`, the TGI with HS 578T breast, in the test on SK-MEL-28 melanoma, in the test on OVCAR-4 ovarian, in the test with UACC-62 melanoma, with SF-268 CNS and in the test on TK-10 renal was over 100 µM throughout. Also, the TGI in the test with HCT-15 colon, in the test on NCI-H226 lung and in the test on HCT-116 colon was over 100 µM each time.
`CC(C)(C)OC(=O)NCCC1CN(C(=O)c2ccccc2)c2ccccc21` (centres undefined): the TGI with HS 578T breast is over 100 µM; in the test with SK-MEL-28 melanoma, 91.2 µM; in the test on OVCAR-4 ovarian it was over 100 µM; with UACC-62 melanoma, 42.3 µM; with MCF7 breast, 85.5 µM; in the test on SF-268 CNS, over 100 µM. In addition, the results for the TGI with TK-10 renal, in the test on HCT-15 colon and with HCT-116 colon were over 100 µM, over 100 µM and 43 µM, respectively.
Take `COc1cc([C@@H]2c3cc(O)c(OC)cc3C=C(C(N)=O)[C@H]2C(N)=O)ccc1O`: the TGI in the test on HS 578T breast, in the test on SK-MEL-28 melanoma, in the test with MCF7 breast, in the test with SF-268 CNS, in the test with HCT-15 colon and with NCI-H226 lung was over 100 µM throughout. In the test on HCT-116 colon, this compound had a TGI of over 100 µM.
Take `Nc1ccc(C(=O)NN2C(=O)C(Cl)C2c2ccccc2)cc1` (centres undefined): the TGI with SK-MEL-28 melanoma, in the test on OVCAR-4 ovarian, in the test on UACC-62 melanoma, in the test on SF-268 CNS, with TK-10 renal and in the test with HCT-15 colon was over 100 µM each time. Further, the TGI in the test with NCI-H226 lung and in the test with HCT-116 colon was over 100 µM each time.
On to `Cc1n[nH]c(=O)n1/N=C/c1ccc([N+](=O)[O-])o1`, for which the TGI in the test with SK-MEL-28 melanoma was 28.3 µM; with OVCAR-4 ovarian, 32.3 µM; in the test on UACC-62 melanoma, 33.6 µM; with MCF7 breast it was over 100 µM; with SF-268 CNS, 45.6 µM; with TK-10 renal, 36.8 µM. Besides, the TGI in the test on HCT-15 colon came to 26.2 µM; in the test on NCI-H226 lung, 56 µM; in the test with HCT-116 colon it was 30.2 µM.
